Results reported in ChEMBL document CHEMBL1201862, “PubChem BioAssay data set” (2004).
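Results reflect a 48-hour exposure of cells in 96-well plates to compound at five concentrations. Abbreviation: GI50, concentration required for 50% inhibition of growth.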 Calls of active or inactive are those of the source. Rule as the data show it: active = GI50 up to about 1.1 µM and inactive = higher.

Experiments:
Assay in all cases: NCI tumour cell line growth inhibition, 48 h
SF-539 = tested on: SF-539
HCT-15 = tested on: HCT-15
SF-268 = tested on: SF-268
SN12C = tested on: SN12C
RXF 393 = tested on: RXF 393
M14 = tested on: M14
RPMI-8226 = tested on: RPMI-8226
HCC 2998 = tested on: HCC 2998
OVCAR-8 = tested on: OVCAR-8
KM-20L2 = tested on: KM-20L2
NCI-H460 = tested on: NCI-H460
TK-10 = tested on: TK-10
SK-OV-3 = tested on: SK-OV-3
EKVX = tested on: EKVX
OVCAR-4 = tested on: OVCAR-4
SNB-19 = tested on: SNB-19
NCI-H23 = tested on: NCI-H23
NCI-H522 = tested on: NCI-H522
ACHN = tested on: ACHN
COLO 205 = tested on: COLO 205
XF498 = tested on: XF498
UACC-257 = tested on: UACC-257
Malme-3M = tested on: Malme-3M
M19-MEL = tested on: M19-MEL
SNB-78 = tested on: SNB-78
UO-31 = tested on: UO-31
HOP-62 = tested on: HOP-62
A549 = tested on: A549
SW-620 = tested on: SW-620
DMS-273 = tested on: DMS-273
LXFL 529 = tested on: LXFL 529
K562 = tested on: K562
HCT-116 = tested on: HCT-116
SK-MEL-28 = tested on: SK-MEL-28
HOP-18 = tested on: HOP-18
HOP-92 = tested on: HOP-92
SR = tested on: SR
KM12 = tested on: KM12
SNB-75 = tested on: SNB-75
IGROV-1 = tested on: IGROV-1
NCI-H226 = tested on: NCI-H226
DMS-114 = tested on: DMS-114
HT-29 = tested on: HT-29
SK-MEL-2 = tested on: SK-MEL-2
CCRF-CEM = tested on: CCRF-CEM
786-0 = tested on: 786-0
A498 = tested on: A498
SF-295 = tested on: SF-295
OVCAR-5 = tested on: OVCAR-5
LOX IMVI = tested on: LOX IMVI
OVCAR-3 = tested on: OVCAR-3
HL-60 = tested on: HL-60
UACC-62 = tested on: UACC-62
CAKI-1 = tested on: CAKI-1
SK-MEL-5 = tested on: SK-MEL-5
U-251 = tested on: U-251
MOLT-4 = tested on: MOLT-4

Structure (SMILES): Cc1ccc(S(=O)(=O)Nc2cccc3c(=O)nc[nH]c23)cc1
- GI50 (SF-539): > 100 µM (inactive)
- GI50 (HCT-15): 61.5 µM
- GI50 (SF-268): > 100 µM (inactive)
- GI50 (SN12C): > 100 µM (inactive)
- GI50 (RXF 393): > 65.3 µM (inactive)
- GI50 (M14): > 100 µM (inactive)
- GI50 (RPMI-8226): 17.8 µM (inactive)
- GI50 (HCC 2998): > 82 µM (inactive)
- GI50 (OVCAR-8): > 100 µM (inactive)
- GI50 (KM-20L2): > 100 µM (inactive)
- GI50 (NCI-H460): > 100 µM (inactive)
- GI50 (TK-10): > 100 µM (inactive)
- GI50 (SK-OV-3): > 100 µM (inactive)
- GI50 (EKVX): > 100 µM (inactive)
- GI50 (OVCAR-4): > 100 µM (inactive)
- GI50 (SNB-19): > 100 µM (inactive)
- GI50 (NCI-H23): 90.8 µM (inactive)
- GI50 (NCI-H522): 76.6 µM (inactive)
- GI50 (ACHN): 66.8 µM (inactive)
- GI50 (COLO 205): > 100 µM (inactive)
- GI50 (XF498): > 100 µM (inactive)
- GI50 (UACC-257): > 87.5 µM (inactive)
- GI50 (Malme-3M): > 100 µM (inactive)
- GI50 (M19-MEL): > 100 µM (inactive)
- GI50 (SNB-78): > 100 µM (inactive)
- GI50 (UO-31): > 68.1 µM (inactive)
- GI50 (HOP-62): > 100 µM (inactive)
- GI50 (A549): 72.8 µM (inactive)
- GI50 (SW-620): > 100 µM (inactive)
- GI50 (DMS-273): > 100 µM (inactive)
- GI50 (LXFL 529): > 86.7 µM (inactive)
- GI50 (K562): 43.6 µM (inactive)
- GI50 (HCT-116): 99.3 µM (inactive)
- GI50 (SK-MEL-28): > 100 µM (inactive)
- GI50 (HOP-18): 53 µM (inactive)
- GI50 (HOP-92): > 39.6 µM (inactive)
- GI50 (SR): 10.7 µM (inactive)
- GI50 (KM12): > 100 µM (inactive)
- GI50 (SNB-75): > 51.1 µM (inactive)
- GI50 (IGROV-1): > 100 µM (inactive)
- GI50 (NCI-H226): > 94.6 µM (inactive)
- GI50 (DMS-114): 31.2 µM (inactive)
- GI50 (HT-29): > 100 µM (inactive)
- GI50 (SK-MEL-2): > 100 µM (inactive)
- GI50 (CCRF-CEM): 37.2 µM (inactive)
- GI50 (786-0): > 100 µM (inactive)
- GI50 (A498): > 100 µM (inactive)
- GI50 (SF-295): 82.6 µM (inactive)
- GI50 (OVCAR-5): > 100 µM (inactive)
- GI50 (LOX IMVI): 96.6 µM (inactive)
- GI50 (OVCAR-3): > 100 µM (inactive)
- GI50 (HL-60): 23.3 µM (inactive)
- GI50 (UACC-62): > 87.1 µM (inactive)
- GI50 (CAKI-1): > 100 µM (inactive)
- GI50 (SK-MEL-5): 43.9 µM (inactive)
- GI50 (U-251): > 100 µM (inactive)
- GI50 (MOLT-4): 34.3 µM (inactive)
